Patent US20230270721A1, “INHIBITION OF BAX-MEDIATED CELL DEATH BY ELTROMBOPAG” (Albert Einstein College of Medicine, priority 2020, published 2023)
Where two headings read alike, the source gives them in different places.

Key:
BAX [1] = biological target: T1, BAX (Homo sapiens, UniProt Q07812); assay: Recombinant BAX TM (Tycho NT.6); type: binding; details: 1:10 BAX:EO
T1 construct: Human full-length (1-192) wild-type BAX (Q07812); made in house; host or cells: E. coli BL21 (DE3) CodonPlus (DE3)-RIPL
T1 sequence (Q07812 whole entry): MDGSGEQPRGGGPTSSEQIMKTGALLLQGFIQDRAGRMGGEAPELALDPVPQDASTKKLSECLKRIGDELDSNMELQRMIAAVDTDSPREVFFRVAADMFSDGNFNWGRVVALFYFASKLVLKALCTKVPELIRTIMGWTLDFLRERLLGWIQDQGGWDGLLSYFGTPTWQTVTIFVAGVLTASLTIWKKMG
Procedure: Purified recombinant BAX ([…]) was combined with DMSO or EO (1:10 BAX:EO) and loaded into Tycho NT.6 (NanoTemper Technologies) capillaries. First derivative (330/350 nm) melting point curves were generated automatically using the Tycho NT.6 (NanoTemper Technologies). Data was exported and to GraphPad PRISM software for analysis and visualization.
To confirm direct engagement of BAX, Cellular Thermal Shift Assay (CETSA) was performed in BAK KO MEFs.

BAX-/-MEFs = assay: Caspase 3/7 assay, STS-induced apoptosis, MEFs expressing only BAK; type: cell-based, mouse; details: 3 µM STS, 6 hr
Source text: FIGS. 7A, 7B, 7C, 7D, 7E, and 7F are a set of diagrams showing that eltrombopag inhibits BAX translocation and BAX-mediated apoptosis in cells. […] BAX translocation is based on antibody-based detection of BAX and mitochondrial protein TOMM20. Representative confocal micrographs from three independent biological experiments. Scale bar, 20 µm. […] Data represent ±SEM of three independent biological replicates. Two-sided t test, ****P < 0.0001; ***P < 0.001; **P < 0.01; *P < 0.05; ns, P > 0.05. […] Actin and VDAC are loading controls for cytosolic and mitochondrial fractions, respectively. FIGS. 7D and 7E show a caspase 3/7 assay of BAK-/- mouse embryonic fibroblasts (MEFs) (FIG. 7D) and BAX-/-MEFs (FIG. 7E) in response to 3 µM STS and the presence or absence of various doses of EO for 6 hr. […]
It is important to note that THPO-receptor agonist activity of EO is highly specific to the human and chimpanzee THPO-receptors, making mouse cell lines ideal for studying EO modulation of BAX-dependent activity independent of THPO-mediated effects (Erickson-Miller, C. L. et al. Stem Cells 27, 424-430 (2009)). First, mitochondrial cytochrome c release, a hallmark of BAX activation and BAX-dependent apoptosis, was evaluated. […] Next, mitochondrial translocation of cytosolic BAX upon treatment with either BIM BH3 or staurosporine (STS) in BAK KO MEFs was evaluated.

BAX [2] = biological target: T1, BAX; assay: Liposomal translocation assay with NBD-labeled BAX; type: biochemical; details: for IC50: NBD-labeled BAX 800 nM, 120 minutes
Procedure: Lipids (Avanti Polar Lipids) at the following ratio, phosphatidylcholine 48%, phosphatidylinositol 10%, dioleoyl phosphatidylserine 10%, phosphatidylethanolamine, 28%, and tetraoleoyl cardiolipin 4%, were mixed in a total of 1 mg, dried and resuspended in 10 mM HEPES, pH 7, 200 mM KCl, and 5 mM MgCl2. The resulting slurry was vortexed for 10 minutes and sonicated in a sonicating water bath for 10 minutes. Liposomes were formed by extrusion of the suspension using Avanti Mini-Extruder with polycarbonate membranes of 0.1 µm pore size (Avanti Polar Lipids) followed by passage through a CL2B Sepharose column (GE Healthcare). Recombinant wild type BAX was labeled at cysteine by overnight incubation at 4° C. with 10 equivalents of iodoamino-NBD (IANBD, Thermo Fisher) and 3 equivalents of TCEP to maintain reduced cysteine. Labeled BAX (BAX-NBD) was separated from unreacted IANBD by gel filtration (Econo-Pac 10 DG desalting column, BioRad) and used immediately. […] Upon BAX-NBD translocation, the NBD fluorophore was excluded from bulk water through contact with the liposomal membrane leading to an increase in fluorescence intensity. Fluorescence (λex = 475 nm and λem = 530 nm) was measured at 1-minute intervals at 37° C. indicated using a Tecan Infinite M1000 plate reader. The percentage translocation at any given time point was calculated as percentage translocation=[((F-F0)/(F100-F0))(100)]-[((FS-FS0)/(FS100-FS0))(100)] where F0 and F100 are baseline and maximal fluorescence, respectively and FS, FS0, and FS100 are the current fluorescence, baseline fluorescence, maximal fluorescence of solution BAX incubated in the absence of liposomes. The subtraction of the percent translocation of solution BAX is required to correct for NBD fluorescence bleaching that occurs throughout the reaction. […]
Prior to permeabilizing membranes, activated BAX must first translocate to the membrane (Lovell, J. F. et al. Cell 135, 1074-1084, (2008)). To explore this earlier step in BAX activation, an NBD-fluorescence-based translocation assay was used. […]

Structure (SMILES): CC1=NN(c2ccc(C)c(C)c2)C(=O)/C1=N\Nc1cccc(-c2cccc(C(=O)O)c2)c1O [EO, eltrombopag]
- change in TM of recombinant BAX (BAX [1]): comparable reduction in TM
- STS-induced apoptosis mediated by caspase 3/7 activity (BAX-/-MEFs): no effect
- IC50 (BAX [2]; BIM BH3 1 µM, read-out: BIM IC50, inhibition of BAX translocation): 5.7 µM
- IC50 (BAX [2]; tBID 200 nM, read-out: tBID IC50, inhibition of BAX translocation): 6.3 µM
- heat-induced auto-translocation of BAX (BAX [2]; heat-induced, no BH3 activator): capable of inhibiting heat-induced auto-translocation of BAX
